Paper PMC3923439, “Anti-inflammatory properties of a novel peptide interleukin 1 receptor antagonist” (Journal of Neuroinflammation, 2014)
Positions of bridges follow the written chain, without caps; N, C: chain ends. Chains are numbered I, II in the order given. No end group written: not given here.

Columns and labels:
[1] = system: HEK-Blue IL-6 cells (STAT3); assay: IL-6-induced STAT3 activation, SEAP reporter; type: cell-based; details: 1.2 pM IL-6, 24 hours, SEAP read at 600 nm
Method: HEK-Blue IL-1β cells that contained an IL-1β-sensitive reporter (InvivoGen, San Diego, CA, USA) and HEK-Blue IL-6 cells that contained an IL-6-sensitive reporter (InvivoGen) were grown at 37°C with 5% CO2 in Dulbecco’s modified Eagle’s medium (DMEM) supplemented with 5% (vol/vol) fetal calf serum (FCS), 4.5 g/L glucose, 2 mM GlutaMAX medium, 100 U/ml penicillin, 100 μg/ml streptomycin (all obtained from Gibco BRL/Life Technologies, Taastrup, Denmark), 100 μg/ml zeocin, 200 μg/ml hygromycin and 100 μg/ml Normocin (all purchased from InvivoGen).
HEK-Blue IL-6 cells were grown as described above. IL-6 cells allow the monitoring of the activation of the signal transducer and activator of transcription 3 (STAT3) pathway specifically in response to IL-6. They express a STAT3-inducible SEAP reporter gene. For the STAT3 activation assay, the cells were treated with 1.2 pM IL-6 alone or together with various concentrations of Ilantide. TNF-α (1.2 pM) was added as a control ligand for both the NF-κB and STAT3 assays. After 24-hour incubation at 37°C, 150 μl of HEK-Blue cell supernatant were added to each well of a 96-well plate together with 50 μl of QUANTI-Blue (InvivoGen), incubated at 37°C in the dark for 40 minutes and measured in an ELISA reader at 600 nm to determine the expression level of the secreted SEAP.

[2] = system: neonatal rat pancreatic islets; assay: IL-1β-induced rat islet cell apoptosis (cell death detection ELISA); type: cell-based
Method: Neonatal rat islets were isolated from 3- to 6-day-old outbred Wistar rats (Taconic, Ejby, Denmark) as previously described. Islets were precultured and maintained in RPMI 1640 medium (Gibco/Life Technologies) supplemented with 20 mmol/L HEPES buffer, 0.038% (wt/vol) NaHCO3, 100 U/ml penicillin, 100 µg/ml streptomycin and 10% (vol/vol) newborn calf serum (NCS) at 37°C in humidified atmospheric air. Prior to experimentation, the islets were randomly distributed to 24-well dishes and incubated for 2 hours in RPMI 1640 medium supplemented as described above, but with 0.5% (vol/vol) NCS relevant reagents were added as indicated.
For cell death detection, rat islets were incubated with 150 pg/ml IL-1β (BD Pharmingen, San Diego, CA, USA) alone or in combination with various concentrations of Ana and Ilantide for 24 hours at 37°C in humidified atmospheric air. Rat islet cell death was assessed by cell death detection ELISA (Roche, Lund, Sweden) as previously described. As a surrogate measure of nitric oxide production, Griess reagent (1:1 aqueous mixture of 0.1% naphthylethylenediamine hydrochloride and 1% sulfanilamide + 5% H3PO4) was mixed in a 1:1 ratio with 100 μl of supernatant samples to determine the nitrite content in supernatants from the cell death assays described above.
Figure 7 Effect of Ilantide on interleukin 1β-induced rat islet cell apoptosis. Rat pancreatic islets were preincubated for 30 minutes in the absence or presence of various concentrations of anakinra (A), Ilantide-m (B) or Ilantide-t (C) and then exposed to […] interleukin 1β (IL-1β) for 24 hours. Cytokine-induced apoptosis was determined by cell death detection enzyme-linked immunosorbent assay. Apoptosis rates are presented as fold induction compared with untreated control islets (white bars). The data from four independent experiments are presented as mean ± SEM. *P < 0.05 and **P < 0.01 compared with cultures treated with IL-1β alone (one-way analysis of variance followed by Dunnett’s post hoc test).

[3] = system: experimental autoimmune encephalomyelitis; assay: Experimental autoimmune encephalomyelitis; type: in vivo, rat; details: female Lewis rats
Method: Experimental autoimmune enchephalomyelitis was induced in female Lewis rats by guinea pig myelin basic protein (MBP) emulsified with CFA (Sigma-Aldrich) that contained 1.0 mg/ml heat-inactivated M. tuberculosis. While the animals were under inhalation anesthesia (3% isoflurane; Baxter), 200 μl of an emulsion that contained 200 μg of MBP were subcutaneously injected at the tail base (dpi 0). Between dpi 0 and 21, weight and clinical signs of EAE were recorded daily for all of the animals. Clinical signs were scored as follows: 0 (no abnormality), 0.5 (weak tail), 1 (limp tail), 2 (mild palsy of one or both hind legs), 3 (severe palsy of one or both hind legs), 4 (complete paralysis of one or both hind legs), 5 (paralysis of one or both hindlimbs and the beginning of paralysis of the forelimbs) and 6 (moribund). Animals with a clinical score ≥4 were immediately killed. From dpi 10 forward, the animals were treated once daily for 5 consecutive days with Ilantide-t (10 mg/kg, 1 ml/kg, s.c.) or PBS (1.0 ml/kg s.c.). Only animals that reached a clinical score ≥1 before dpi 14 were included in the study.

[4] = 10 mg/kg s.c. once daily dpi 10 to 14
[5] = 10 mg/kg s.c. once daily for 5 days

## I: SGRKSSKMQAKK-NH2 / II: SGRKSSKMQAK / III: SGRKSSKMQA / IV: SGRKSSKMQA (amide I:11-IV:C, I:12-II:C, II:11-III:C; C-terminus assumed) [Ilantide-t]
[1]
  Inhibition of STAT3 activation induced by IL-6: did not inhibit
[2]; Ilantide-t in high molar excess
  Reduction of IL-1-induced apoptosis relative to the maximal effect of Ana: 1.5 ×
[2]; rat islets, 30 minutes preincubation, 8.68 nM (150 pg/ml) IL-1β, 24 hours, four independent experiments
  Maximal inhibition of IL-1β-induced apoptosis: 93%
[3]; [4]
  Clinical signs of EAE: attenuated
  Effect on weight change or survival in EAE: no significant effects
[3]; [5]
  Mean clinical signs of EAE versus vehicle, first and second days after onset: significantly lower
  Mean clinical signs of EAE versus vehicle, later time points: no difference
